Laboratory results reported in US20050215609A1, “Novel uses of prostaglandin d2, prostaglandin d2 agonist and prostaglandin d2 antagonist” (priority 2002, published 2005).
Where a name gives a salt, the structure may show the parent alone.

Assays:
PGD2 receptor = biological target: T1, PGD2 receptor (Mus musculus, UniProt P70263); test: Effect of PGD2 antagonist on the orexigenic action of PGD2, combined ICV administration (Experiment 2); type: in vivo; conditions: mice, two hours after administration
T1 construct: injected into the third cerebral ventricle; from tissue; host or cells: living ddY mouse, brain (ICV injection into the third cerebral ventricle)
T1 sequence (P70263 1-357): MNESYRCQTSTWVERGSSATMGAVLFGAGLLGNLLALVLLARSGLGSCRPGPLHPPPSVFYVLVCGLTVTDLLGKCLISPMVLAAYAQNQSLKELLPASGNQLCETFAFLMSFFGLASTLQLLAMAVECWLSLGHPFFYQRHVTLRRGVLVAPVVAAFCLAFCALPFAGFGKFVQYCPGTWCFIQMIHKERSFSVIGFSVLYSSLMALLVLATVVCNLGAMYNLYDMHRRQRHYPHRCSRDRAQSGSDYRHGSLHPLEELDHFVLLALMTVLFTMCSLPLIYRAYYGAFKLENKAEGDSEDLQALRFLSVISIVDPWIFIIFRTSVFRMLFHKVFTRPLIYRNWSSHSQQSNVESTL
Experimental: (§1) The weight of food pellets was measured before and after ICV injection and cumulative food intake was calculated.
(§2) Values were expressed as the mean ± SEM. Analysis of variance (ANOVA) followed by Bonferroni's t-test was used to assess differences among groups. P values less than 0.05 were considered significant.
The groups, one of which was administered PGD2 alone and the other received combined administration of PGD2/PGD2 antagonist, were used to investigate the effect of PGD2 antagonist on the orexigenic action of PGD2. PGD2 antagonist, (±) 3-benzyl-5-(6-carboxyhexyl)-1-(2-cyclohexyl-2-hydroxyethylamino)hydantoin (BW A868C, Sigma-Aldrich) was used.

Male ddY mice [1] = test: Anorexigenic action of PGD2 antagonist, food intake of mice after ICV administration (Experiment 3 (1)); type: in vivo; conditions: BW A868C 0.72 and 7.2 μg/mouse
Experimental: as §1
The PGD2 antagonist used in Experiment 2, i.e., (±) 3-benzyl-5-(6-carboxyhexyl)-1-(2-cyclohexyl-2-hydroxyethylamino)hydantoin (BW A868C, Sigma-Aldrich), was used to investigate anorexigenic action in mice. The compound was administered to mice via ICV injection (0.72 and 7.2 μg/mouse) as described in Experiment 1, and the food intake was compared with the group that received the vehicle (ACSF).

SD rat [2] = test: Cumulative food intake of SD rat after intraperitoneal administration (Experiment 3 (2), Table 2); type: in vivo; conditions: i.p., 30 mg/kg
Experimental: as §1, §2
Also, another group of SD rat was administered the test compound via intraperitoneal administration (30 mg/kg) and the food intake was compared with the group that received vehicle (5% DMSO in saline).

SD rat [3] = test: Cumulative food intake of fasted SD rat after ICV administration (Experiment 3 (2), Table 1); type: in vivo; conditions: SD rat fasted 24 hours, 100 μg
Experimental: as §1, §2
(§3) The PGD2 antagonist, (Z)-7-[(1R,2R,3S,5S)]-2-(5-hydroxybenzo[b]thiophene-3-ylcarbonylamino)-10-norpinane-3-yl]heptan-5-enonic acid (formula IA-a1) was used to investigate anorexigenic action […]. The sodium salt of this compound was administered to SD rat, fasted for 24 hours, via ICV injection as described above (dosage: 0.1, 1, 10, 100 μg/rat), and the food intake was compared with the group that received vehicle (5% DMSO in saline).

[4] = Changes in body weight of fasted SD rat after ICV administration (Experiment 3 (2), Table 1); type: in vivo; conditions: SD rat fasted 24 hours, 100 μg
Experimental: as §3

Male ddY mice [5] = test: Food intake of mice after ICV administration of PGD2 (Experiment 1); type: in vivo, mouse
Experimental: as §1, §2

With `O=C(O)CCCCCCC1C(=O)N(Cc2ccccc2)C(=O)N1NCC(O)C1CCCCC1` (racemic) [BW A868C, (±)-3-benzyl-5-(6-carboxyhexyl)-1-(2-cyclohexyl-2-hydroxyethylamino)hydantoin] the “effect on the orexigenic action of PGD2 (food intake)” value (PGD2 receptor) was “inhibited the orexigenic action of PGD2 completely” and the “food intake compared to vehicle” value (Male ddY mice [1]) was “inhibition of food intake was observed”.

In the case of `CC1(C)C2CC1[C@H](NC(=O)c1csc3ccc(O)cc13)[C@@H](C/C=C\CCCC(=O)O)C2` (some centres unmarked) [Compund (IA-a1) (Na salt)], the “Cululative Food intake (g) 1 hr.” value (SD rat [2]; 1 hr.) is reported as 2.38 ± 0.41 g, the “Cululative Food intake (g) 2 hr.” value (SD rat [2]; 2 hr.) is reported as 4.30 ± 0.67 g and the “Cululative Food intake (g) 4 hr.” value (SD rat [2]; 4 hr.) is reported as 7.85 ± 0.66 g. For the same compound, the “Cululative Food intake (g) 24 hr.” value (SD rat [2]; 24 hr.) was 32.05 ± 1.09 g, the “Cululative Food intake (g) 1 hr.” value (SD rat [3]; 1 hr.) was 5.18 ± 0.47 g and the “Cululative Food intake (g) 2 hr.” value (SD rat [3]; 2 hr.) was 6.15 ± 0.50 g. For the same compound, the “Cululative Food intake (g) 4 hr.” value (SD rat [3]; 4 hr.) was 6.86 ± 0.49 g, the “Cululative Food intake (g) 24 hr.” value (SD rat [3]; 24 hr.) was 25.71 ± 1.30 g and the “Changes in body weght (g) 1 hr.” value ([4]; 1 hr.) was 0.89 ± 0.79 g. The “Changes in body weght (g) 2 hr.” value ([4]; 2 hr.) was 2.89 ± 1.28 g, the “Changes in body weght (g) 4 hr.” value ([4]; 4 hr.) was 1.07 ± 1.47 g and the “Changes in body weght (g) 24 hr.” value ([4]; 24 hr.) was 7.20 ± 2.60 g.

For `CCCCC[C@H](O)/C=C/[C@H]1C(=O)C[C@H](O)[C@@H]1C/C=C\CCCC(=O)O` [PGD2, prostaglandin D2], the “food intake versus control group” value (Male ddY mice [5]; 0.2 μg PGD2/mouse, 60 and 120 min after the injection) was “significant increase in food intake”, the “food intake versus control group” value (Male ddY mice [5]; 2 μg PGD2/mouse, 60 and 120 min after the injection) was “significant increase in food intake” and the “food intake versus control group” value (Male ddY mice [5]; 20 μg PGD2/mouse) was “the food intake was temporally inhibited shortly after the injection, but the food intake was increased thereafter”.
